# Source: ChEMBL document CHEMBL3880421, “Indazole compounds and pharmaceutical compositions for inhibiting protein kinases, and methods for their use” (2003)
# Legend:
# [1] = Terminal half life in B6 mouse at 50 mg/kg, po by UV-HPLC analysis; format: ADME, organism-based; settings: B6, mouse, in vivo, read-out: beta t1/2 (converted)
# [2] = Terminal half life in B6 mouse at 25 mg/kg, ip by UV-HPLC analysis; format: ADME, organism-based; settings: in vivo, read-out: beta t1/2 (converted)
# [3] = Terminal half life in B6 mouse at 10 mg/kg, po by UV-HPLC analysis; format: ADME, organism-based; settings: in vivo, read-out: beta t1/2 (converted)
# [4] = Terminal half life in B6 mouse at 25 mg/kg, po by UV-HPLC analysis; format: ADME, organism-based; settings: in vivo; for half-life: B6, mouse, read-out: beta t1/2 (converted)
# [5] = tested on: Focal adhesion kinase 1 (Homo sapiens), Q05397 [P410T]; assay: Inhibition of human FAK P410T mutant expressed in baculovirus expression system at 10 uM using poly Glu-Tyr (4:1) as substrate by fluorescence polarization method
# [6] = Cmax in B6 mouse at 50 mg/kg, po by UV-HPLC analysis; format: ADME, organism-based; parameters: dose 50 mg/kg, route oral; settings: in vivo
# [7] = molecular target: T1, Serine/threonine-protein kinase Chk1 (Homo sapiens) (UniProt O14757); assay: Inhibition of full length human C-terminal 6His-tagged CHK1 expressed in baculovirus/insect expression system assessed as reduction in NADH oxidation at 20 uM using Syntide2 as substrate by pyruvate kinase/lactate dehydrogenase coupled assay
# T1 sequence (whole entry): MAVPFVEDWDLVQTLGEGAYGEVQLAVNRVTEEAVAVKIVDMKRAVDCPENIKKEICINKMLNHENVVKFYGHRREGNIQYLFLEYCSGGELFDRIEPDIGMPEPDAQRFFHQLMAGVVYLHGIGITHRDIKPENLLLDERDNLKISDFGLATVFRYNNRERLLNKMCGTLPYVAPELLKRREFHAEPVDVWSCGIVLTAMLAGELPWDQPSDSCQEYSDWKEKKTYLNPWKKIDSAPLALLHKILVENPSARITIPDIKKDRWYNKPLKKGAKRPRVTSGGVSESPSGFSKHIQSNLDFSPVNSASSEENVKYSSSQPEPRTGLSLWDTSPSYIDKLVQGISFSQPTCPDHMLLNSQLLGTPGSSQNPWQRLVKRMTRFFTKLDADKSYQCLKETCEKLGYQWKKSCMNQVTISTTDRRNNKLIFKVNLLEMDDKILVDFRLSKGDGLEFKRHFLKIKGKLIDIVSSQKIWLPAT
# Rattus norvegicus [8] = assay: Antivascular activity in rat model of retinopathy assessed as vessel regression in retina at 5 mg/ml, administered intravitreally measured after 6 days by ADPase-staining based histochemical analysis; format: functional
# [9] = tested on: Vascular endothelial growth factor receptor 2 (Homo sapiens), P35968 [E990V]; settings: at 50 nM
# [10] = Metabolic stability in human liver microsomes assessed as compound remaining at 5 uM measured after 2 hrs in presence of NADPH-regenerating system by LC-UV/MS analysis; format: ADME; settings: read-out: Stability
# Rattus norvegicus [11] = assay: Antivascular activity in rat model of retinopathy assessed as vessel regression in retina at 5 mg/ml, administered intravitreally on postnatal day 8 measured after 6 days by ADPase-staining based histochemical analysis; format: functional
# [12] = molecular target: Cyclin-dependent kinase 1 (Homo sapiens) (UniProt P06493); assay: Inhibition of CDK1 (unknown origin) at 1 uM
# Mus musculus = assay: (§1) Cmax in B6 mouse at 25 mg/kg, po by UV-HPLC analysis; format: ADME, organism-based; parameters: dose 25 mg/kg, route oral; settings: mouse, in vivo, BLD = below limit of detection
# [13] = as §1; format: ADME, organism-based; parameters: dose 25 mg/kg, route oral; settings: B6, mouse, in vivo
# [14] = AUClast in B6 mouse at 50 mg/kg, po by UV-HPLC analysis; format: ADME, organism-based; parameters: dose 50 mg/kg, route oral, time 0 - last; settings: in vivo
# [15] = molecular target: T1, Serine/threonine-protein kinase Chk1 (Homo sapiens); assay: Inhibition of full length human C-terminal 6His-tagged CHK1 expressed in baculovirus/insect expression system assessed as reduction in NADH oxidation at 50 uM using Syntide2 as substrate by pyruvate kinase/lactate dehydrogenase coupled assay
# [16] = AUClast in B6 mouse at 25 mg/kg, po by UV-HPLC analysis; format: ADME, organism-based; parameters: dose 25 mg/kg, time 0 - last, route oral; settings: in vivo
# [17] = Cmin in B6 mouse at 8 mg/kg, po measured after 7 hrs by UV-HPLC analysis; format: ADME, organism-based; settings: in vivo, read-out: Cmin
# [18] = Cmin in B6 mouse at 40 mg/kg, po measured after 7 hrs by UV-HPLC analysis; format: ADME, organism-based; settings: in vivo, read-out: Cmin
# [19] = Cmin in B6 mouse at 200 mg/kg, po measured after 7 hrs by UV-HPLC analysis; format: ADME, organism-based; settings: in vivo, read-out: Cmin
# [20] = AUClast in B6 mouse at 10 mg/kg, po by UV-HPLC analysis; format: ADME, organism-based; parameters: dose 10 mg/kg, route oral, time 0 - last; settings: in vivo
# [21] = Cmax in B6 mouse at 10 mg/kg, po by UV-HPLC analysis; format: ADME, organism-based; parameters: dose 10 mg/kg, route oral; settings: in vivo
# [22] = Terminal half life in B6 mouse at 8 mg/kg, po by UV-HPLC analysis; format: ADME, organism-based; settings: in vivo, read-out: beta t1/2 (converted)
# [23] = Terminal half life in B6 mouse at 40 mg/kg, po by UV-HPLC analysis; format: ADME, organism-based; settings: in vivo, read-out: beta t1/2 (converted)
# Vascular endothelial growth factor receptor 2 (Homo sapiens), P35968 [E990V], sequence (P35968 whole entry E990V): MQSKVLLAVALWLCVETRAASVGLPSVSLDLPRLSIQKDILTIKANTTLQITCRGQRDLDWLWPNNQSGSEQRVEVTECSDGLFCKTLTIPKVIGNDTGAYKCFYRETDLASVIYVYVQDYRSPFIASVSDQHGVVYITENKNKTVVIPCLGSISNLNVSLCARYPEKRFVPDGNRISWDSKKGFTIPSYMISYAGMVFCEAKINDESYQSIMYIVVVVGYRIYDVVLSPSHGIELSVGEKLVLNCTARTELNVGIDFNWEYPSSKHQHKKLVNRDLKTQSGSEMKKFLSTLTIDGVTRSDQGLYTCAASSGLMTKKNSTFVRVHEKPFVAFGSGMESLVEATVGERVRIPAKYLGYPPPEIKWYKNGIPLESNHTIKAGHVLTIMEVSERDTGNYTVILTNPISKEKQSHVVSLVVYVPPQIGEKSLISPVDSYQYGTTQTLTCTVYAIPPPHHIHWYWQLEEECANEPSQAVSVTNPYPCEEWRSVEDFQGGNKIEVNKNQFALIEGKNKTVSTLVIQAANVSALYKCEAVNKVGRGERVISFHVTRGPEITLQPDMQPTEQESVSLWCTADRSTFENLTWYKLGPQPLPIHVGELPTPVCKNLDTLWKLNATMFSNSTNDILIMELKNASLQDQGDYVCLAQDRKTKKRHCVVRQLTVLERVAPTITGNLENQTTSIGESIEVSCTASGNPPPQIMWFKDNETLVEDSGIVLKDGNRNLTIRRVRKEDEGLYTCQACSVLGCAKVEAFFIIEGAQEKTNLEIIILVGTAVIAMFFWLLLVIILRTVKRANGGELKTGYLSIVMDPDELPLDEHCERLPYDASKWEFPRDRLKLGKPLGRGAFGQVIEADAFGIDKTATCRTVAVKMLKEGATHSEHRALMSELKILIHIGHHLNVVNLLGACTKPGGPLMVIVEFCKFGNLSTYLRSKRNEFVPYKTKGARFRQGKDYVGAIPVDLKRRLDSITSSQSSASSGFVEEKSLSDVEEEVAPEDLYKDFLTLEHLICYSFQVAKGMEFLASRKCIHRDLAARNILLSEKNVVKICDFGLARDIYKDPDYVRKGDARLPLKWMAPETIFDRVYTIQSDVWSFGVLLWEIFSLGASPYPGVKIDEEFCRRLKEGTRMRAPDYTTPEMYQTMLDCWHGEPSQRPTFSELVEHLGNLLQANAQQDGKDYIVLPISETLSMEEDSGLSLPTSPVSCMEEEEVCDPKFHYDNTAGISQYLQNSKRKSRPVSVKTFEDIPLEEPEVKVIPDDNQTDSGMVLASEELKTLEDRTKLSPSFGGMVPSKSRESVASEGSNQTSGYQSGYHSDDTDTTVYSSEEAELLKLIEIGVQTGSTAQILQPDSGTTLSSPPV
# Focal adhesion kinase 1 (Homo sapiens), Q05397 [P410T], sequence (Q05397 whole entry P410T): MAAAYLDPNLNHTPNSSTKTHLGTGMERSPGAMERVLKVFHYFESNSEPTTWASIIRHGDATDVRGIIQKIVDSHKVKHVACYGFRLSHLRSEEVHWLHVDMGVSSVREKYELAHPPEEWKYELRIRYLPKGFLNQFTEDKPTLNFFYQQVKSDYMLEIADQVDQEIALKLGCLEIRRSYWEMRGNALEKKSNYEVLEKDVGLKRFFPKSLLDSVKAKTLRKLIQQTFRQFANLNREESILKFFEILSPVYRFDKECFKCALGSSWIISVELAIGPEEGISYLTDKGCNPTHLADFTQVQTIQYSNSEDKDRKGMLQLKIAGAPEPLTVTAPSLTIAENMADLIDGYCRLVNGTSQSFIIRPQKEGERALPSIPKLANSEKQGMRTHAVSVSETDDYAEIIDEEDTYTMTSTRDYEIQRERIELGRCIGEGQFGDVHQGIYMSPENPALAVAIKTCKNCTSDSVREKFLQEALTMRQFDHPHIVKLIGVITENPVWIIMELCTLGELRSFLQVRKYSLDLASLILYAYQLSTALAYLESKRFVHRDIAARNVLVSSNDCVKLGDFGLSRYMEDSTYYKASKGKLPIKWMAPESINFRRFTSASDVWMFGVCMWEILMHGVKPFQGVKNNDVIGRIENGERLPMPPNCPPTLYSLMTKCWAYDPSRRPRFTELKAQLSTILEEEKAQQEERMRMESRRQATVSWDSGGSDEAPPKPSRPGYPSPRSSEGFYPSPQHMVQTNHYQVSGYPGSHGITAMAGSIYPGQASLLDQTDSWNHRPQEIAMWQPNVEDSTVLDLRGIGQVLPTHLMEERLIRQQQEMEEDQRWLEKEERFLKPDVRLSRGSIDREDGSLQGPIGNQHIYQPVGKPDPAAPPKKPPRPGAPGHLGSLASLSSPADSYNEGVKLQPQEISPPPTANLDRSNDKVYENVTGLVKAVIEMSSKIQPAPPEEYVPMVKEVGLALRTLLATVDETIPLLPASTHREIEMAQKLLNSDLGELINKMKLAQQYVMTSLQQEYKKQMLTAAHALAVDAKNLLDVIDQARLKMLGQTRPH
# Cyclin-dependent kinase 1 (Homo sapiens), sequence (P06493 whole entry, looked up): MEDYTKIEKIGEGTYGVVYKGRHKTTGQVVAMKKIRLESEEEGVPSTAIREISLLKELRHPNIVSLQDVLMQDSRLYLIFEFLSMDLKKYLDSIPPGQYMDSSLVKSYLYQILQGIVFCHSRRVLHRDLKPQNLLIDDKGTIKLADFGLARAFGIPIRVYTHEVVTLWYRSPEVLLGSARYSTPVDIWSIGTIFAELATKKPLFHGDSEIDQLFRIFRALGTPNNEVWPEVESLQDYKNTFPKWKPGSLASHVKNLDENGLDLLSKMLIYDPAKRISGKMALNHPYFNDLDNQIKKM
Structure (SMILES),half-life [1],half-life [2],further results
CCn1nc(C)cc1C(=O)Nc1cccc(Oc2ccc3c(/C=C/c4ccccn4)n[nH]c3c2)c1,39.3 h,5.3 h,half-life [3]: 3.1 h; half-life [4]: 1.9 h
COc1cc(-c2ccc3c(-c4cc5ccccc5[nH]4)n[nH]c3c2)ccc1O,–,–,inhibition [5]: 26%
O=C(Nc1cccc(Oc2ccc3c(/C=C/c4ccccc4)n[nH]c3c2)c1)c1ccccc1,–,–,Cmax [6]: 198 ng/mL
CCn1nc(C)cc1C(=O)Nc1cccc(Oc2ccc3c(/C=C/c4ccccn4)n[nH]c3c2)c1.Cl,–,–,half-life [4]: 21 h
Cc1cc(NC(=O)c2ccc3c(-c4nc5ccccc5[nH]4)n[nH]c3c2)n[nH]1,–,–,inhibition [7]: 38.6%
O=C(Nc1cccc(C(=O)c2ccc3c(-c4nc5ccccc5[nH]4)n[nH]c3c2)c1)c1ccccc1,3 h,3 h,–
O=C(Nc1cccc(Cl)c1)c1ccccc1Sc1ccc2c(/C=C/c3ccccn3)n[nH]c2c1,0.9 h,1.6 h,–
CCNC(=O)c1ccccc1Sc1ccc2c(/C=C/c3ccccn3)n[nH]c2c1,0.9 h,3.2 h,–
O=C(Nc1cccc(Oc2ccc3c(/C=C/c4ccc(Cl)cc4)n[nH]c3c2)c1)c1ccccc1,–,–,Activity (Rattus norvegicus [8]): 25 - 75%
Cc1cc(C(=O)Nc2cccc(C(=O)c3ccc4c(/C=C/c5ccccn5)n[nH]c4c3)c2)n[nH]1,0.7 h,0.3 h,–
C#CCNC(=O)c1cccc(C(=O)c2ccc3c(/C=C/c4ccccn4)n[nH]c3c2)c1,–,–,inhibition [9]: 5%
C=C(C)CNC(=O)c1ccccc1Sc1ccc2c(/C=C/c3ccccn3)n[nH]c2c1,–,1.5 h,half-life [4]: 14.6 h
O=C(NCC(F)(F)F)c1ccccc1Sc1ccc2c(/C=C/c3ccccn3)n[nH]c2c1,0.7 h,2.4 h,–
O=C(Nc1cccc(C(=O)c2ccc3c(/C=C/c4ccccn4)n[nH]c3c2)c1)c1ccncc1,1.1 h,4.7 h,"remaining at 2 h, 5 µM [10]: 50%"
O=C(NCCN1CCOCC1)c1ccc2c(-c3nc4ccccc4[nH]3)n[nH]c2c1,–,–,inhibition [7]: 21.7%
O=C(Nc1ccccc1)c1ccccc1Sc1ccc2c(/C=C/c3ccccn3)n[nH]c2c1,3 h,1.2 h,–
O=C(c1ccc2c(-c3nc4ccccc4[nH]3)n[nH]c2c1)N1CCC(CCO)CC1,–,–,inhibition [7]: 33%
O=C(Nc1cccc(O)c1)c1ccc2c(-c3nc4ccccc4[nH]3)n[nH]c2c1,–,–,inhibition [7]: 57.7%
C/C=C/C(=O)Nc1cccc(C(=O)c2ccc3c(/C=C/c4ccccn4)n[nH]c3c2)c1,2.6 h,1.7 h,Activity (Rattus norvegicus [11]): 25 - 75%
O=C(Nc1nccs1)c1ccccc1Sc1ccc2c(/C=C/c3ccccn3)n[nH]c2c1,1.2 h,1.2 h,–
Fc1cccc(/C=C/c2n[nH]c3cc(-c4ccncc4)ccc23)c1F,–,–,inhibition [12]: 7 to 31%
O=C(Nc1cc(Nc2ccc3c(/C=C/c4ccccc4)n[nH]c3c2)ccc1F)c1ccccc1,3.4 h,19.9 h,–

Structure (SMILES),half-life [1],half-life [2],further results
Cn1cccc1C(=O)NNC(=O)c1ccccc1Sc1ccc2c(/C=C/c3ccccn3)n[nH]c2c1,0.9 h,1.8 h,–
O=C(c1cccc(NC(=O)c2ccccn2)c1)c1ccc2c(/C=C/c3ccccc3)n[nH]c2c1,2.2 h,2.2 h,–
O=C(NCC1CC1)c1ccccc1Sc1ccc2c(/C=C/c3ccccn3)n[nH]c2c1,1 h,0.9 h,–
O=C(NC1CCC1)c1ccccc1Sc1ccc2c(/C=C/c3ccccn3)n[nH]c2c1,4.9 h,3.2 h,–
Cc1ccc2cc(NC(=O)c3ccccc3Sc3ccc4c(/C=C/c5ccccn5)n[nH]c4c3)ccc2n1,3 h,3 h,–
C=CCONC(=O)c1ccccc1Sc1ccc2c(/C=C/c3ccccn3)n[nH]c2c1,4.5 h,1.3 h,–
O=C(NCc1cccc(F)c1)c1ccccc1Sc1ccc2c(/C=C/c3ccccn3)n[nH]c2c1,–,–,"Cmax (Mus musculus): Bld; beta t1/2 ([4]; mouse, BLD = below limit of detection): Bld"
O=C(Nc1cccc(C(=O)c2ccc3c(/C=C/c4ccccc4)n[nH]c3c2)c1)c1ccncc1,1.2 h,1.6 h,–
C[C@@H]1C[C@H]1C(=O)Nc1cccc(C(=O)c2ccc3c(/C=C/c4ccccn4)n[nH]c3c2)c1 (racemic),0.7 h,1.2 h,–
O=C(Nc1cccc(C(=O)c2ccc3c(/C=C/c4ccccn4)n[nH]c3c2)c1)c1ccccc1,2 h,5 h,–
Cc1cc(C(=O)Nc2cc(C(=O)c3ccc4c(/C=C/c5ccccn5)n[nH]c4c3)c(C)cc2C)n(C)n1,–,–,Activity (Rattus norvegicus [11]): <=25%
CCCNC(=O)c1ccccc1Sc1ccc2c(/C=C/c3ccccn3)n[nH]c2c1,0.9 h,1.4 h,–
CCn1nc(C)cc1C(=O)Nc1cccc(Oc2ccc3c(/C=C/c4c[nH]cn4)n[nH]c3c2)c1,–,–,Cmax [13]: 179 ng/mL; half-life [4]: 2.1 h
C#CCNC(=O)c1ccccc1Sc1ccc2c(/C=C/c3ccccn3)n[nH]c2c1,0.9 h,1.4 h,–
CC(=O)c1cccc(C(=O)Nc2cccc(N(C)c3ccc4c(/C=C/c5ccc6c(c5)OCO6)n[nH]c4c3)c2)c1,–,–,Activity (Rattus norvegicus [8]): 36 - 37%
CCn1nc(C)cc1C(=O)Nc1cc(Nc2ccc3c(/C=C/c4ccccn4)n[nH]c3c2)c(F)cc1C.Cl,–,–,AUC(0-t) [14]: 276 µg·h/mL
CCn1nc(C)cc1C(=O)Nc1cccc(C(=O)c2ccc3c(/C=C/c4ccccn4)n[nH]c3c2)c1,3.4 h,2.9 h,Activity (Rattus norvegicus [11]): >=25 - 75%
O=C(c1cccc(NC(=O)C2C[C@H]2c2ccccc2)c1)c1ccc2c(/C=C/c3ccccn3)n[nH]c2c1 (mixture of isomers),0.5 h,3.1 h,inhibition [15]: 48%
O=C(NCc1ccccc1F)c1ccccc1Sc1ccc2c(/C=C/c3ccccn3)n[nH]c2c1,3.6 h,3.8 h,–
Cc1cc(C(=O)Nc2cc(Nc3ccc4c(/C=C/c5ccccn5)n[nH]c4c3)ccc2F)n(C)n1.Cl,–,–,AUC(0-t) [16]: 327 µg·h/mL; Cmax [13]: 50000 ng/mL; concentration at 7 h [17]: 1900 ng/mL; concentration at 7 h [18]: 4140 ng/mL; concentration at 7 h [19]: 12700 ng/mL
CCn1nc(C)cc1C(=O)Nc1cccc(C(=O)c2ccc3c(/C=C/c4ccccn4)n[nH]c3c2)c1.Cl,–,–,AUC(0-t) [20]: 0.061 µg·h/mL; Cmax [21]: 12 ng/mL; concentration at 7 h [17]: 122 ng/mL; concentration at 7 h [18]: 1880 ng/mL; half-life [3]: 3.1 h; half-life [4]: 1.6 h; half-life [22]: 1.5 h; half-life [23]: 2.4 h
CC(C)NC(=O)c1ccccc1Sc1ccc2c(/C=C/c3ccccn3)n[nH]c2c1,0.8 h,0.8 h,–
